Results taken from PubChem BioAssay (NCI).
“And” between values parts separate entries of the source, which are not always exact repeats. Identical values can stand only once.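 Interpolation was linear, between the two tested concentrations surrounding the appropriate level; five concentrations were tested over 48 hours in 96-well plates. Abbreviation: GI50, concentration required for 50% inhibition of growth. TGI is the concentration that stops growth completely.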

Columns and labels:
Assay in all cases: growth of human tumour cells (NCI), 48 h
SK-OV-3 ovarian = system: SK-OV-3 ovarian
KM12 colon = system: KM12 colon
COLO 205 colon = system: COLO 205 colon
HL-60(TB) leukemia = system: HL-60(TB) leukemia
MDA-MB-435 = system: MDA-MB-435
SNB-75 CNS = system: SNB-75 CNS
T-47D breast = system: T-47D breast
SNB-19 CNS = system: SNB-19 CNS
SN12C renal = system: SN12C renal
NCI-H522 lung = system: NCI-H522 lung

Structure (SMILES) | TGI (SK-OV-3 ovarian) | TGI (KM12 colon) | TGI (COLO 205 colon) [µM] | TGI (HL-60(TB) leukemia) [µM] | TGI (MDA-MB-435) [µM] | TGI (SNB-75 CNS) [µM] | TGI (T-47D breast) | TGI (SNB-19 CNS) [µM] | TGI (SN12C renal) [µM] | TGI (NCI-H522 lung) [µM] | GI50 (SK-OV-3 ovarian) | GI50 (NCI-H522 lung) | GI50 (T-47D breast) | GI50 (SN12C renal)
CCC(=O)NCC1CCCN2CCCCC12 (centres undefined) | > 100 µM | > 100 µM | > 100 | > 100 | > 100 | > 100 | > 100 µM | > 100 | > 100 | – | – | – | – | –
COc1ccc(N=NC(=Nc2ccccc2)c2ccc(N(CCC#N)CCC#N)cc2)cc1 | > 100 µM | > 100 µM | 28.6 | – | > 100 | > 100 | > 100 µM | > 100 | > 100 | 69.1 | – | – | – | –
N#CC(NCc1cccc(CNC(C#N)c2ccccc2)c1)c1ccccc1 (centres undefined) | > 100 µM | 56.6 µM | 42.6 | 43.4 | > 100 | 87.6 | > 100 µM | > 100 | > 100 | > 100 | – | – | – | –
CC(=O)c1c2c(c3ccccc3c1O)O[C@@H]1OCC[C@H]21 | > 100 µM | > 100 µM | > 100 | > 100 | > 100 | 34.2 | > 100 µM | > 100 | > 100 | > 100 | – | – | – | –
Nn1c(-c2ccccc2)n[nH]c1=O | > 100 µM | > 100 µM | > 100 | > 100 | > 100 | > 100 | > 100 µM | > 100 | > 100 | > 100 | – | – | – | –
COc1cccc(Nc2nc(-c3cccs3)nc3cc(OC)c(OC)cc23)c1 | > 100 µM | 87.1 µM | 62.3 | > 100 | 96.4 | 73.5 | > 100 µM | > 100 | 53.8 | 43.1 | – | – | – | –
O=[N+]([O-])c1ccc(Cl)cc1N/N=C/c1ccnc2ccccc12 | > 100 µM | > 100 µM | > 100 | > 100 | > 100 | > 100 | > 100 µM | > 100 | > 100 | > 100 | – | – | – | –
COc1cc(S(=O)(=O)Nc2nc(-c3ccc(N4C(=O)C(CC(=O)O)SC4c4cccs4)cc3)cs2)ccc1Cl (centres undefined) | > 100 µM | > 100 µM | > 100 | 74 | > 100 | 40.4 | 91.9 µM | > 100 | > 100 | 37.1 | – | – | – | –
Cc1ccnc(NS(=O)(=O)c2ccc(N=[N+]=[N-])cc2)n1 | > 100 µM | > 100 µM | > 100 | > 86.3 | > 100 | > 100 | > 100 µM | > 100 | > 100 | > 100 | – | – | – | –
CCCCCC1=CC(=O)C1(Cl)Cl | 85.4 µM | 27.9 µM | 26.7 | 4.06 | 33 | 30.4 | > 52.2 µM | > 67.3 | 72 | 15.8 | – | – | – | –
C[C@]12CC[C@H](O)CC1=CC[C@@H]1[C@@H]2CC[C@]2(C)C(=N/N)/C(=N\O)C[C@@H]12 | > 100 µM | > 100 µM | > 100 | 67.7 | 5 | 30.5 | > 100 µM | > 100 | > 100 | > 100 | – | – | – | –
CC1(C(=O)O)CCC2(C)CCC3(C)C(=CC(=O)C4C5(C)CCC(O)C(C)(C)C5CCC43C)C2C1 (centres undefined) | > 100 µM | 37.3 µM | > 100 | 51.3 | > 100 | > 100 | 99.1 µM | > 100 | > 100 | 50.1 | – | – | – | –
COc1ncc(/C=C2\OC(=O)c3ccccc32)c(OC)n1 | – | > 100 µM | > 100 | > 100 | > 100 | 47.3 | > 100 µM | > 100 | > 100 | > 100 | – | – | – | –
Oc1ccccc1CNCc1nc2ccccc2[nH]1 | – | > 100 µM | 82.7 | > 100 | > 100 | > 100 | > 100 µM | > 100 | > 100 | > 100 | – | – | – | –
CCOP(=O)(OCC)C(F)(F)c1ccc(CC(NC(=O)OC(C)(C)C)C(=O)O)cc1 (centres undefined) | > 10 µM | > 10 µM | > 10 | – | > 10 | > 10 | > 10 µM | > 10 | > 10 | – | – | – | – | –
Cc1ccc(-c2cc(-c3ccco3)c(C#N)c(=S)n2C2OC(CO)C(O)C(O)C2O)cc1 (centres undefined) | 10.7 µM and > 100 µM | 76.9 µM and > 100 µM | > 100 | – | > 100 | > 100 | 84.9 µM and > 100 µM | > 100 | > 100 | > 100 | 2.51 µM and 21.9 µM | 29.5 µM and 65.4 µM | 23.6 µM and 53 µM | 20.6 µM and > 100 µM
Cc1cccc(Cn2c3c(c4cc(O)ccc42)C(=O)c2ccccc2C3=O)c1 | > 29.9 µM | > 100 µM | > 100 | > 89 | > 100 | 8.63 | > 100 µM | > 100 | > 100 | – | – | – | – | –
C=C1CCN2CC[C@@H](OC(=O)/C(C)=C\C)[C@@H]12 | > 100 µM | > 100 µM | > 100 | – | > 100 | > 100 | > 100 µM | > 100 | > 100 | > 100 | – | – | – | –
Nc1c(-c2ccc(Cl)c(Cl)c2)c2ccc([N+](=O)[O-])cc2c(=O)n1-c1nc2ccccc2s1 | 28.8 µM | > 100 µM | 2.89 | – | > 100 | 8.23 | > 24.9 µM | > 49.4 | 12.3 | 3.02 | – | – | – | –
CCCCOC(=O)Nc1ccc(S(=O)(=O)Nc2ccccc2Cl)cc1 | 33.8 µM | 62.9 µM | 45.2 | 59.5 | 36 | – | 87.1 µM | 49.8 | 48.8 | 49.3 | – | – | – | –
Nn1c(Nc2ccc(S(=O)(=O)Nc3ncccn3)cc2)nnc(/C=C/c2c(O)ccc3ccccc23)c1=O | – | – | – | 45.2 | 69.4 | 66.5 | 96.8 µM | > 100 | > 100 | 69.6 | – | – | – | –
NS(=O)(=O)c1nnc(NC(=O)Nc2ccc(Cl)c(Cl)c2)s1 | 63.4 µM | 92 µM | 28.2 | > 100 | 50 | – | 55.3 µM | 55.8 | 39.7 | 30.1 | – | – | – | –
